How the values were obtained:
[1] = system: Echinochloa oryzoides (Ard.) Fritsch.; experiment: Preemergence weed control under flooded paddy conditions, ECHORC (Watergrass (Calif.)); format: in vivo; conditions: flooded paddy; for herbicidal effect rating, ECHORC / ECHORC herbicidal effect rating: preemergence; for ECHORC: preemergence weeds, herbicidal effect rating 0-9, three to four weeks after treatment; for herbicidal effect rating, ECHORC: meaning of each grade not given here
[2] = system: Cyperus iria; experiment: Preemergence weed control under flooded paddy conditions, CYPIR (Rice Flatsedge); format: in vivo; conditions: flooded paddy; for herbicidal effect rating, CYPIR / CYPIR herbicidal effect rating: preemergence; for CYPIR: preemergence weeds, herbicidal effect rating 0-9, three to four weeks after treatment; for herbicidal effect rating, CYPIR: meaning of each grade not given here
[3] = system: Cyperus serotinus, Rottb.; experiment: Preemergence weed control under flooded paddy conditions, CYPSE (Flatsedge); format: in vivo; conditions: for herbicidal effect rating, CYPSE / CYPSE herbicidal effect rating: preemergence; for CYPSE: preemergence weeds, herbicidal effect rating 0-9, three to four weeks after treatment; for herbicidal effect rating, CYPSE: meaning of each grade not given here
[4] = system: Monochoria vaginalis, Presl.; experiment: Preemergence weed control under flooded paddy conditions, MOOVA (Monochoria); format: in vivo; conditions: flooded paddy; for herbicidal effect rating, MOOVA / MOOVA herbicidal effect rating: preemergence; for MOOVA: preemergence weeds, herbicidal effect rating 0-9, three to four weeks after treatment; for herbicidal effect rating, MOOVA: meaning of each grade not given here
[5] = system: Sagittaria pygmaea, L.; experiment: Preemergence weed control under flooded paddy conditions, SAGPY (Arrowhead (Pygmaea)); format: in vivo; conditions: flooded paddy; for herbicidal effect rating, SAGPY / SAGPY herbicidal effect rating: preemergence; for SAGPY: preemergence weeds, herbicidal effect rating 0-9, three to four weeks after treatment; for herbicidal effect rating, SAGPY: meaning of each grade not given here
[6] = system: Oryza sativa, (L.) Tebonnet; experiment: Rice tolerance to post-transplant applications under flooded paddy conditions (Example 187), ORYSAT (Rice, Tebonnet); conditions: for ORYSAT: herbicidal effect rating 0-9, three to four weeks after treatment; for herbicidal effect rating ORYSAT: meaning of each grade not given here
[7] = Rate 0.0320 kg/ha, rated 3-4 weeks after treatment
[8] = Rate 0.0620 kg/ha, rated 3-4 weeks after treatment
[9] = Rate 0.1250 kg/ha, rated 3-4 weeks after treatment
[10] = Rate 0.2500 kg/ha, rated 3-4 weeks after treatment
[11] = Rate 0.5000 kg/ha, rated 3-4 weeks after treatment
[12] = Rate 0.0320 kg/ha, rated three to four weeks after treatment
[13] = Rate 0.0620 kg/ha, rated three to four weeks after treatment
[14] = Rate 0.1250 kg/ha, rated three to four weeks after treatment
[15] = Rate 0.2500 kg/ha, rated three to four weeks after treatment

Question: How did the “herbicidal effect rating, ECHORC” value [1, 7] turn out when `CCS(=O)(=O)NC(=O)COc1ccccc1-c1nsc2ccc(-n3c(=O)cc(C(F)(F)F)n(C)c3=O)cc12` [Example 558, Acetamide, 2-{o-{5-[3,6-dihydro-3-methyl-2,6-dioxo-4-(trifluoromethyl)-1(2H)-pyrimidinyl]-1,2-benzisothiazol-3-yl}phenoxy}-N-(ethylsulfonyl)-] was run?
Answer: 4.3

Question: What about the “herbicidal effect rating, ECHORC” value [1, 8] of the same molecule?
Answer: 4.7

Question: And the “herbicidal effect rating, ECHORC” value [1, 9]?
Answer: 7.0

Question: And the “herbicidal effect rating, ECHORC” value [1, 10]?
Answer: 9.0

Question: And the “herbicidal effect rating, ECHORC” value [1, 11]?
Answer: 9.0

Question: What about the “herbicidal effect rating, CYPIR” value [2, 7] of the same molecule?
Answer: 2.0

Question: And the “herbicidal effect rating, CYPIR” value [2, 8]?
Answer: 6.0

Question: What about the “herbicidal effect rating, CYPIR” value [2, 9] of the same molecule?
Answer: 8.0

Question: What about the “herbicidal effect rating, CYPIR” value [2, 10] of the same molecule?
Answer: 9.0

Question: And the “herbicidal effect rating, CYPIR” value [2, 11]?
Answer: 9.0

Question: What about the “herbicidal effect rating, CYPSE” value [3, 9] of the same molecule?
Answer: 9.0

Question: And the “herbicidal effect rating, CYPSE” value [3, 10]?
Answer: 9.0

Question: And the “herbicidal effect rating, CYPSE” value [3, 11]?
Answer: 9.0

Question: What about the “herbicidal effect rating, MOOVA” value [4, 7] of the same molecule?
Answer: 9.0

Question: What about the “herbicidal effect rating, MOOVA” value [4, 8] of the same molecule?
Answer: 9.0

Question: What about the “herbicidal effect rating, MOOVA” value [4, 9] of the same molecule?
Answer: 9.0

Question: What about the “herbicidal effect rating, MOOVA” value [4, 10] of the same molecule?
Answer: 9.0

Question: What about the “herbicidal effect rating, MOOVA” value [4, 11] of the same molecule?
Answer: 9.0

Question: And the “herbicidal effect rating, SAGPY” value [5, 7]?
Answer: 2.0

Question: And the “herbicidal effect rating, SAGPY” value [5, 8]?
Answer: 2.0

Question: And the “herbicidal effect rating, SAGPY” value [5, 9]?
Answer: 4.0

Question: What about the “herbicidal effect rating, SAGPY” value [5, 10] of the same molecule?
Answer: 8.0

Question: And the “herbicidal effect rating, SAGPY” value [5, 11]?
Answer: 4.0

Question: And the “herbicidal effect rating ORYSAT” value [6, 7]?
Answer: 4.0

Question: And the “herbicidal effect rating ORYSAT” value [6, 8]?
Answer: 7.0

Question: And the “herbicidal effect rating ORYSAT” value [6, 9]?
Answer: 9.0

Question: And the “herbicidal effect rating ORYSAT” value [6, 10]?
Answer: 9.0

Question: And the “herbicidal effect rating ORYSAT” value [6, 11]?
Answer: 9.0

Question: Which results are given for `Cn1c(C(F)(F)F)cc(=O)n(-c2ccc3snc(C(=O)NCC(=O)O)c3c2)c1=O` [Example 579, Glycine, N-{{5-[3,6-dihydro-3-methyl-2,6-dioxo-4-(trifluoromethyl)-1(2H)-pyrimidinyl]-1,2-benzisothiazol-3-yl}carbonyl}-]?
Answer: herbicidal effect rating, ECHORC [1, 12]: 2.0; herbicidal effect rating, ECHORC [1, 13]: 4.0; herbicidal effect rating, ECHORC [1, 14]: 4.0; herbicidal effect rating, ECHORC [1, 15]: 5.0; herbicidal effect rating, CYPIR [2, 12]: 0.0; herbicidal effect rating, CYPIR [2, 13]: 0.0; herbicidal effect rating, CYPIR [2, 14]: 4.0; herbicidal effect rating, CYPIR [2, 15]: 6.0; herbicidal effect rating, CYPSE [3, 12]: 0.0; herbicidal effect rating, CYPSE [3, 13]: 0.0; herbicidal effect rating, CYPSE [3, 14]: 0.0; herbicidal effect rating, CYPSE [3, 15]: 0.0; herbicidal effect rating, MOOVA [4, 12]: 6.0; herbicidal effect rating, MOOVA [4, 13]: 7.0; herbicidal effect rating, MOOVA [4, 14]: 7.0; herbicidal effect rating, MOOVA [4, 15]: 9.0; herbicidal effect rating, SAGPY [5, 12]: 0.0; herbicidal effect rating, SAGPY [5, 13]: 0.0; herbicidal effect rating, SAGPY [5, 14]: 0.0; herbicidal effect rating, SAGPY [5, 15]: 2.0; herbicidal effect rating ORYSAT [6, 12]: 0.0; herbicidal effect rating ORYSAT [6, 13]: 2.0; herbicidal effect rating ORYSAT [6, 14]: 3.0; herbicidal effect rating ORYSAT [6, 15]: 3.0

Question: `Cn1c(C(F)(F)F)cc(=O)n(-c2ccc3snc(C=C(Br)Br)c3c2)c1=O` [Example 284, 2,4(1H,3H)-Pyrimidinedione, 3-[3-(2,2-dibromovinyl)-1,2-benzisothiazol-5-yl]-1-methyl-6-(trifluoromethyl)-] was tested. Which “ECHORC herbicidal effect rating” value [1, 12] did it give?
Answer: 0.0

Question: What about the “ECHORC herbicidal effect rating” value [1, 13] of the same molecule?
Answer: 0.0

Question: And the “ECHORC herbicidal effect rating” value [1, 14]?
Answer: 0.0

Question: And the “ECHORC herbicidal effect rating” value [1, 15]?
Answer: 0.0

Question: What about the “CYPIR herbicidal effect rating” value [2, 12] of the same molecule?
Answer: 4.0

Question: What about the “CYPIR herbicidal effect rating” value [2, 13] of the same molecule?
Answer: 9.0

Question: And the “CYPIR herbicidal effect rating” value [2, 14]?
Answer: 9.0

Question: And the “CYPIR herbicidal effect rating” value [2, 15]?
Answer: 9.0

Question: What about the “CYPSE herbicidal effect rating” value [3, 12] of the same molecule?
Answer: 0.0

Question: What about the “CYPSE herbicidal effect rating” value [3, 13] of the same molecule?
Answer: 0.0

Question: And the “CYPSE herbicidal effect rating” value [3, 14]?
Answer: 2.0

Question: What about the “CYPSE herbicidal effect rating” value [3, 15] of the same molecule?
Answer: 9.0

Question: What about the “MOOVA herbicidal effect rating” value [4, 12] of the same molecule?
Answer: 4.0

Question: What about the “MOOVA herbicidal effect rating” value [4, 13] of the same molecule?
Answer: 9.0

Question: And the “MOOVA herbicidal effect rating” value [4, 14]?
Answer: 9.0

Question: What about the “MOOVA herbicidal effect rating” value [4, 15] of the same molecule?
Answer: 9.0

Question: What about the “SAGPY herbicidal effect rating” value [5, 12] of the same molecule?
Answer: 0.0

Question: What about the “SAGPY herbicidal effect rating” value [5, 13] of the same molecule?
Answer: 0.0

Question: And the “SAGPY herbicidal effect rating” value [5, 14]?
Answer: 0.0

Question: And the “SAGPY herbicidal effect rating” value [5, 15]?
Answer: 0.0

Question: What about the “ORYSAT herbicidal effect rating” value [6, 12] of the same molecule?
Answer: 0.0

Question: And the “ORYSAT herbicidal effect rating” value [6, 13]?
Answer: 0.0

Question: What about the “ORYSAT herbicidal effect rating” value [6, 14] of the same molecule?
Answer: 0.0

Question: And the “ORYSAT herbicidal effect rating” value [6, 15]?
Answer: 0.0

Question: Which results are given for `CN(C(=O)COc1ccccc1-c1nsc2ccc(-n3c(=O)cc(C(F)(F)F)n(C)c3=O)cc12)S(C)(=O)=O` [Example 438, Acetamide, 2-{o-{5-[3,6-dihydro-3-methyl-2,6-dioxo-4-(trifluoromethyl)-1(2H)-pyrimidinyl]-1,2-benzisothiazol-3-yl}phenoxy}-N-methyl-N-(methylsulfonyl)-]?
Answer: ECHORC ([1]; 0.0320 kg/ha): 7.0; ECHORC ([1]; 0.0620 kg/ha): 8.0; ECHORC ([1]; 0.1250 kg/ha): 9.0; ECHORC ([1]; 0.2500 kg/ha): 9.0; CYPIR ([2]; 0.0320 kg/ha): 4.5; CYPIR ([2]; 0.0620 kg/ha): 6.5; CYPIR ([2]; 0.1250 kg/ha): 8.5; CYPIR ([2]; 0.2500 kg/ha): 9.0; CYPSE ([3]; 0.0320 kg/ha): 4.5; CYPSE ([3]; 0.0620 kg/ha): 9.0; CYPSE ([3]; 0.1250 kg/ha): 7.0; CYPSE ([3]; 0.2500 kg/ha): 9.0; MOOVA ([4]; 0.0320 kg/ha): 8.0; MOOVA ([4]; 0.0620 kg/ha): 8.5; MOOVA ([4]; 0.1250 kg/ha): 9.0; MOOVA ([4]; 0.2500 kg/ha): 9.0; SAGPY ([5]; 0.0320 kg/ha): 2.0; SAGPY ([5]; 0.0620 kg/ha): 3.5; SAGPY ([5]; 0.1250 kg/ha): 8.5; SAGPY ([5]; 0.2500 kg/ha): 9.0; ORYSAT ([6]; 0.0320 kg/ha): 4.0; ORYSAT ([6]; 0.0620 kg/ha): 5.0; ORYSAT ([6]; 0.1250 kg/ha): 7.0; ORYSAT ([6]; 0.2500 kg/ha): 8.0

Reference: EP0908457B1, “3-(1,2-benzisothiazol- and isoxazol-5-Y1)-2,4(1H,3H)-pyrimidinedione or thione and 3-(1,2-benzisothiazol- and isoxazol-5-y1)-4(3H)-pyrimidinone or thione herbicidal agents” (BASF AKTIENGESELLSCHAFT, priority 1997, dated 1999)
